Values of other authors in PubChem BioAssay AID1259409 (Chemical Carcinogenesis Research Information System (CCRIS), 2018).

Tested on: rodent chemically induced tumor inhibition, incidence and multiplicity
Experiment: CCRIS tumor inhibitor studies

SMILES: CC/C(=C(\c1ccccc1)c1ccc(OCCN(C)C)cc1)c1ccccc1
- tumour outcome (control, treated, inhibition, significance) (Carcinogen: 1,2-DIMETHYLHYDRAZINE HYDROCHLORIDE, 306-37-6, Dose [Inhibitor]: 0, 0.5 UG/G/D IN DIET FOR 28 WK (STUDY DURATION: 28 WK), Route [Inhibitor]: ORAL, Species: RAT, Strain/Sex: SPRAGUE-DAWLEY/FEMALE, Target Tissue: Type of Lesion: COLON: TUMOR, Dose [Carcinogen]: 20 MG/KG BW 1/WK FOR 28 WK, Promoter: NONE USED): 26/36 (72%), 17/33 (52%), 28%, p<0.001
- tumour outcome (control, treated, inhibition, significance) (Carcinogen: 3-METHYLCHOLANTHRENE, 56-49-5, Dose [Inhibitor]: 0, 50 UG/KG FOR DURATION OF STUDY (STUDY DURATION: LIFETIME), Route [Inhibitor]: SUBCUTANEOUS, Species: MOUSE, Strain/Sex: SWISS/FEMALE, Target Tissue: Type of Lesion: CERVIX: CARCINOMA, Dose [Carcinogen]: CARCINOGEN AND BEESWAX (1:3) IMPREGNATED THREAD INSERTED IN THE CANAL OF THE UTERINE CERVIX, Promoter: NONE USED): 60%, 30%, 50%, p<0.01
- tumour outcome (control, treated, inhibition, significance) (Carcinogen: 3-METHYLCHOLANTHRENE, 56-49-5, Dose [Inhibitor]: 0, 50 UG/KG GIVEN TO OOPHERECTOMIZED MICE 3/WK FOR DURATION OF STUDY (STUDY DURATION: LIFETIME), Route [Inhibitor]: SUBCUTANEOUS, Species: MOUSE, Strain/Sex: SWISS/FEMALE, Target Tissue: Type of Lesion: CERVIX: CARCINOMA, Dose [Carcinogen]: CARCINOGEN AND BEESWAX (1:3) IMPREGNATED THREAD INSERTED IN THE CANAL OF THE UTERINE CERVIX, Promoter: NONE USED): 62%, 27%, 56%, p<0.01
- tumour outcome (control, treated, inhibition, significance) (Carcinogen: 7,12-DIMETHYLBENZ[A]ANTHRACENE (57-97-6), Dose [Inhibitor]: 0.125 MG/KG DIET FOR 17 WKS (STUDY DURATION: 17 WKS), Route [Inhibitor]: DIET, Species: RAT, Strain/Sex: SPRAGUE-DAWLEY/FEMALE (20,18)/(20,18), Target Tissue: Type of Lesion: MAMMARY, Dose [Carcinogen]: 12.5 MG ONCE 1 WK AFTER START OF DIETS (STUDY DURATION: 17 WKS)): 95%, 73%, 23%, p=0.015
- tumour outcome (control, treated, inhibition, significance) (Carcinogen: 7,12-DIMETHYLBENZ[A]ANTHRACENE (DMBA) (57-97-6), Dose [Inhibitor]: 50 MG/KG/D FOR 37 WK (STUDY DURATION: 37 WK), Route [Inhibitor]: ORAL GAVAGE, Species: MOUSE, Strain/Sex: SENCAR/FEMALE, Target Tissue: Type of Lesion: MAMMARY: CARCINOMA, Dose [Carcinogen]: 20 UG/D FOR 6 WKS (STUDY DURATION: 37 WKS), Promoter: MEDROXYPROGESTERONE ACETATE (71-58-9)): 10/21 (48%); 0%, 100%, p=0.0004
- tumour outcome (control, treated, inhibition, significance) (Carcinogen: 7,12-DIMETHYLBENZ[A]ANTHRACENE (DMBA) [57-97-6], Dose [Inhibitor]: 50 MG/KG/D FOR 52 WK (STUDY DURATION: 52 WK), Route [Inhibitor]: ORAL GAVAGE, Species: MOUSE, Strain/Sex: SENCAR/FEMALE, Target Tissue: Type of Lesion: MAMMARY: CARCINOMA, Dose [Carcinogen]: 20 UG/D FOR 6 WKS, Promoter: MEDROXYPROGESTERONE ACETATE (71-58-9)): 13/23 (57%); 0/20 (0%), 100%, p=0.00003
- tumour outcome (control, treated, inhibition, significance) (Carcinogen: 17 BETA-ESTRADIOL, 50-28-2, Dose [Inhibitor]: 25 MG PELLETS CONTAINING 90% TAMOXIFEN ADMINISTERED ONCE AT BEGINNING OF STUDY AND ONCE AT 3.5 MO, ADMINISTERED CONCURRE, Route [Inhibitor]: SUBCUTANEOUS IMPLANT, Species: HAMSTER, Strain/Sex: SYRIAN/MALE, Target Tissue: Type of Lesion: KIDNEY: RENAL CARCINOMA, Dose [Carcinogen]: 25 MG PELLETS CONTAINING 90% ESTRADIOL ONCE AT BEGINNING OF STUDY AND ONCE AT 3.5 MO, Promoter: NONE USED): 3/3 (100%), 2/8 (25%), 75%, not calculated
- tumour outcome (control, treated, inhibition, significance) (Carcinogen: ETHYL METHANESULFONATE, 62-50-0, Dose [Inhibitor]: 0, 50 MG/KG 1/WK FOR 4 WK BEGINNING POST CARCINOGEN TREATMENT (STUDY DURATION: 30 WK), Route [Inhibitor]: SUBCUTANEOUS, Species: RAT, Strain/Sex: WISTAR/FEMALE, Target Tissue: Type of Lesion: MAMMARY GLAND: CARCINOMA, Dose [Carcinogen]: 0.01 MOLAR SOLUTION IN DRINKING WATER FOR 12 WK, Promoter: NONE USED): 100%, 100%, 0%, not significant
- tumour outcome (control, treated, inhibition, significance) (Carcinogen: ETHYL METHANESULFONATE, 62-50-0, Dose [Inhibitor]: 0, 50 MG/KG 1/WK FOR 4 WK CONCOMITANTLY WITH CARCINOGEN TREATMENT (STUDY DURATION: 30 WK), Route [Inhibitor]: SUBCUTANEOUS, Species: RAT, Strain/Sex: WISTAR/FEMALE, Target Tissue: Type of Lesion: MAMMARY GLAND: CARCINOMA, Dose [Carcinogen]: 0.01 MOLAR SOLUTION IN DRINKING WATER FOR 12 WK, Promoter: NONE USED): 100%, 50%, 50%, p<0.01
- tumour outcome (control, treated, inhibition, significance) (Carcinogen: ETHYLNITROSOUREA [759-73-9], Dose [Inhibitor]: 420 MG/K DIET FOR 60 WK (STUDY DURATION: 60 WK), Route [Inhibitor]: DIET, Species: MOUSE, Strain/Sex: B6C3F1/MALE (?,44)/(?,47), Target Tissue: Type of Lesion: LIVER: HEPATOCELLULAR CARCINOMA, Dose [Carcinogen]: 120 UG/KG ONCE): 11/44 (25%), 2/47 (4%), 84%, p<0.001
- tumour outcome (control, treated, inhibition, significance) (Carcinogen: N-ETHYL-N'-NITRO-N-NITROSOGUANADINE, 4245-77-6, Dose [Inhibitor]: 0, 70 MG/KG BW IN CHOLESTEROL IMPLANTED 1 WK POST CARCINOGEN DOSE, IMPLANTS REPLACED AT 6 TO 8 WK INTERVALS FOR THE DURA, Route [Inhibitor]: SUBCUTANEOUS IMPLANT, Species: RAT, Strain/Sex: DONRYU/FEMALE, Target Tissue: Type of Lesion: UTERUS: ADENOCARCINOMA, Dose [Carcinogen]: 20 MG/KG BW ONCE, Promoter: NONE USED): 9/29 (31%), 0/30 (0%), 100%, not calculated
- tumour outcome (control, treated, inhibition, significance) (Carcinogen: N-ETHYL-N'-NITRO-N-NITROSOGUANADINE, 4245-77-6, Dose [Inhibitor]: 0, 70 MG/KG BW IN CHOLESTEROL IMPLANTED 20 WKS POST CARCINOGEN DOSE, IMPLANTS REPLACED AT 6 TO 8 WK INTERVALS FOR DURATI, Route [Inhibitor]: SUBCUTANEOUS IMPLANT, Species: RAT, Strain/Sex: DONYRU/FEMALE, Target Tissue: Type of Lesion: UTERUS: ADENOCARCINOMA, Dose [Carcinogen]: 20 MG/KG BW ONCE, Promoter: NONE USED): 9/29 (31%), 0/29 (0%), 100%, not calculated
- tumour outcome (control, treated, inhibition, significance) (Carcinogen: N-METHYL-N'-NITROSOUREA, 684-93-5, Dose [Inhibitor]: 0, 0.125 MG/KG IN DIET FOR DURATION OF STUDY BEGINNING 60 D PRIOR TO CARCINOGEN DOSE (STUDY DURATION: 240 D), Route [Inhibitor]: ORAL, Species: RAT, Strain/Sex: SPRAGUE-DAWLEY/FEMALE, Target Tissue: Type of Lesion: MAMMARY GLAND: TUMOR, Dose [Carcinogen]: 50 MG/KG BW ONCE, Promoter: NONE USED): 68%, 62%, 9%, not significant
- tumour outcome (control, treated, inhibition, significance) (Carcinogen: N-METHYL-N'-NITROSOUREA, 684-93-5, Dose [Inhibitor]: 0, 0.25 MG/KG IN DIET FOR DURATION OF STUDY BEGINNING 60 D PRIOR TO CARCINOGEN DOSE (STUDY DURATION: 240 D), Route [Inhibitor]: ORAL, Species: RAT, Strain/Sex: SPRAGUE-DAWLEY/FEMALE, Target Tissue: Type of Lesion: MAMMARY GLAND: TUMOR, Dose [Carcinogen]: 50 MG/KG BW ONCE, Promoter: NONE USED): 80%, 25%, 69%, p<0.005
- tumour outcome (control, treated, inhibition, significance) (Carcinogen: N-METHYL-N-NITROSOUREA, 684-93-5, Dose [Inhibitor]: 0, 0.2 MG/KG IN DIET FOR THE DURATION OF STUDY BEGINNING 7 D PRIOR TO CARCINOGEN DOSE (STUDY DURATION: 187 D), Route [Inhibitor]: ORAL, Species: RAT, Strain/Sex: SPRAGUE-DAWLEY/FEMALE, Target Tissue: Type of Lesion: MAMMARY GLAND: TUMOR, Dose [Carcinogen]: 50 MG/KG BW ONCE, Promoter: NONE USED): 100%, 100%, 0%, not significant
